Test results from patent EP0742220A2, “Esters of boric acid and their use as perfume” (HAARMANN & REIMER GMBH, priority 1995, dated 1996).

Key:
Pseudomonas aeruginosa = assay: microtitre plate test on sterile agar, growth inhibition of gram-negative bacteria; format: cell-based; conditions: gramnegativen Bakterien (z.B. Pseudomonas aeruginosa); Inkubationszeit 3 Tage, Temperatur 37°C
Experimental: (§1) Sowohl gegenüber gramnegativen Bakterien (z.B. Pseudomonas aeruginosa) als auch grampositiven Bakterien (z.B. Staphylococcus aureus) zeigen die beispielhaft genannten Borate eine hervorragende wachstumshemmende Wirkung, was experimentell durch einen sogenannten Mikrotiterplattentest auf sterilem Agar (Inkubationszeit 3 Tage, Temperatur 37°C) dokumentiert werden konnte.

Staphylococcus aureus = assay: microtitre plate test on sterile agar, growth inhibition of gram-positive bacteria; format: cell-based; conditions: grampositiven Bakterien (z.B. Staphylococcus aureus); Inkubationszeit 3 Tage, Temperatur 37°C
Experimental: as §1

Row | Structure (SMILES) | wachstumshemmende Wirkung (Pseudomonas aeruginosa) | wachstumshemmende Wirkung (Staphylococcus aureus)
1 | CC/C=C\CCOB(OCC/C=C\CC)OCC/C=C\CC [tris-(cis)-3-Hexenylborat] | antimikrobiellen Eigenschaften | antimikrobiellen Eigenschaften
2 | CC(C)=CCC/C(C)=C/COB(OC/C=C(\C)CCC=C(C)C)OC/C=C(\C)CCC=C(C)C [tris-Geranylborat] | antimikrobiellen Eigenschaften | antimikrobiellen Eigenschaften
3 | CC(CC=O)CCCC(C)(C)OB(OC(C)(C)CCCC(C)CC=O)OC(C)(C)CCCC(C)CC=O (centres unmarked) [tris-Hydroxycitronellalborat] | antimikrobiellen Eigenschaften | antimikrobiellen Eigenschaften
4 | C=CC(C)(CCC=C(C)C)OB(OC(C)(C=C)CCC=C(C)C)OC(C)(C=C)CCC=C(C)C (centres unmarked) [tris-Linalylborat] | antimikrobiellen Eigenschaften | antimikrobiellen Eigenschaften
5 | CC(C)=CCC/C(C)=C\COB(OC/C=C(/C)CCC=C(C)C)OC/C=C(/C)CCC=C(C)C [tris-Nerylborat] | antimikrobiellen Eigenschaften | antimikrobiellen Eigenschaften
6 | c1ccc(CCOB(OCCc2ccccc2)OCCc2ccccc2)cc1 [tris-Phenylethylborat] | antimikrobiellen Eigenschaften | antimikrobiellen Eigenschaften
7 | C=CCCCCCCCCCOB(OCCCCCCCCCC=C)OCCCCCCCCCC=C [tris-Undecenylborat] | antimikrobiellen Eigenschaften | antimikrobiellen Eigenschaften
